# Experimental data taken from PMC3251925 (Bioorganic & medicinal chemistry, 2011).
# Read-outs that look alike come from different tables or passages of the source.
# Assays:
# Edema Factor (EF) [1] = target: T1, Edema Factor (EF) (Bacillus anthracis, UniProt P40136); test: cell-based; assay type: cell-based
# [2] = test system: enterotoxigenic E.coli (ETEC); assay type: in vivo; conditions: assuming 5 ml serum/mouse
# [3] = test system: human GADD45α gene-GFP reporter in TK6 cells (GenM-T01, GenM-C01)
# RAW 264.7 cells = conditions: added alone, at the highest dose tested
# Edema Factor (EF) [4] = target: T1, Edema Factor (EF); conditions: read-out: IC50, inhibition of cAMP production induced by edema toxin; cited from earlier work
# [5] = test system: enterotoxigenic E.coli (ETEC); conditions: cited from earlier work
# cholera toxin = conditions: cited from earlier work
# [6] = in vivo; cited from earlier work
# T1 sequence (P40136 whole entry, looked up): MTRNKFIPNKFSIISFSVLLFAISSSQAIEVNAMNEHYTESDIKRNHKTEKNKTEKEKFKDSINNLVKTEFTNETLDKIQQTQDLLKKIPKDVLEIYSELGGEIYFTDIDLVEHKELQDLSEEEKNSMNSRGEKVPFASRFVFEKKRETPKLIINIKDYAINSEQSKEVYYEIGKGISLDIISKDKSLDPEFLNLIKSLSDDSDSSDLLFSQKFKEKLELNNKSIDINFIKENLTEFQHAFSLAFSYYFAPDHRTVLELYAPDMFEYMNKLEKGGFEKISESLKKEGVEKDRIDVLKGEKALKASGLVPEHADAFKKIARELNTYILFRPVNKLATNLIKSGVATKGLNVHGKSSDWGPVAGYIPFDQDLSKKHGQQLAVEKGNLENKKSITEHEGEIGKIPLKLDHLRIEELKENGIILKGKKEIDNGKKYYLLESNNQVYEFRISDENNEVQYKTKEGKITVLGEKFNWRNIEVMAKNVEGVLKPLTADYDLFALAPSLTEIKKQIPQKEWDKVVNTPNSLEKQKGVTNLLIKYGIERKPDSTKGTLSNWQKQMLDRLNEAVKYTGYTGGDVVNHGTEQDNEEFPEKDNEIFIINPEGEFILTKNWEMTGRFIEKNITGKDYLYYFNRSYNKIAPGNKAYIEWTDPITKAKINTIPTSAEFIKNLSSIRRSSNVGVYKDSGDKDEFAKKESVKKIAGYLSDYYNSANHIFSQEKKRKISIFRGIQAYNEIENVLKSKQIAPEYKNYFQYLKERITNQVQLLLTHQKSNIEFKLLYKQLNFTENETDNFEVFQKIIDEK
compound,measurement,setting,value
3-[(Biphenyl-3-carbonyl)-amino]-benzoic acid [Compound 2],IC50,Edema Factor (EF) [1]; read-out: IC50 (μM) Assay 1,19 µM
"O=C(O)c1cccc(NC(=O)c2cccc3c2C(=O)c2ccccc2-3)c1 [Compound 1, 3-(9-oxo-9H-fluorene-1-carboxamido)benzoic acid]",IC50,Edema Factor (EF) [1],1.64 to 12.3 µM
same,Active dose in mice expressed as concentration,[2],about 3 μg/ml
same,Mutagenicity,tester strain TAMix,non-mutagenic
same,Number of revertants,tester strain TAMix,doubling
same,Concentration determined to be cytotoxic,[3],62.5 µg/mL
same,Concentration with genotoxic activity (positive response),[3],62.5 µg/mL
same,Obvious toxicity to cultured cells,RAW 264.7 cells,no obvious toxic effect
same,IC50,Edema Factor (EF) [4],2 to 9 µM
same,Effective dose to reduce diarrhea in mice (from ETEC),"[5]; intraperitoneally or by gavage, per mouse",7.5 to 15 µg
same,Diarrhea caused by ETEC,"[5]; mouse, oral gavage dose of 15 μg/mouse",reduced diarrhea
same,Levels of bacteria in the colons of infected and treated mice,[5]; versus mice that did not receive the compound,much lower
same,Inhibition of cholera toxin,cholera toxin,inhibits cholera toxin
same,Obvious toxic effect in mouse studies,[6],no obvious toxic effect
"O=C(Nc1ccccc1)c1cccc2c1C(=O)c1ccccc1-2 [Compound 4, 9-oxo-N-phenyl-9H-fluorene-1-carboxamide]","EF inhibitory activity, in words",Edema Factor (EF) [1],relatively inactive
"Nc1ccc(NC(=O)c2cccc3c2C(=O)c2ccccc2-3)c(C(=O)O)c1 [Compound 6, 5-Amino-2-(9-oxo-9H-fluorene-1-carboxamido)benzoic acid]","EF inhibitory activity, in words",Edema Factor (EF) [1],inactive
"O=C(O)c1cc(NC(=O)c2cccc3c2C(=O)c2ccccc2-3)ccc1O [Compound 9, 2-Hydroxy-5-(9-oxo-9H-fluorene-1-carboxamido)benzoic acid]","EF inhibitory activity, in words",Edema Factor (EF) [1],inactive
"Nc1cc(NC(=O)c2cccc3c2C(=O)c2ccccc2-3)cc(C(=O)O)c1 [Compound 10, 3-amino-5-(9-oxo-9H-fluorene-1-carboxamido)benzoic acid]",IC50,Edema Factor (EF) [1],1.3 µM
same,Obvious toxicity to cultured cells,RAW 264.7 cells,neither caused obvious toxicity
"COC(=O)c1cc(NC(=O)c2cccc3c2C(=O)c2ccccc2-3)ccc1O [Compound 14, Methyl 2-hydroxy-5-(9-oxo-9H-fluorene-1-carboxamido)benzoate]","EF inhibitory activity, in words",Edema Factor (EF) [1],completely inactive
same,IC50,Edema Factor (EF) [1],249 µM
"CN(C)c1cccc(NC(=O)c2cccc3c2C(=O)c2ccccc2-3)c1 [Compound 19, N-(3-(dimethylamino)phenyl)-9-oxo-9H-fluorene-1-carboxamide]",Obvious toxicity to cultured cells,RAW 264.7 cells,neither caused obvious toxicity
